These results are taken from patent publication US20250066328A1, “PARP7 INHIBITORS” (Gilead Sciences, Inc., priority 2023, published 2025).

Molecules are shown by their SMILES.

For the assay, the system named is STAT1 (phosphorylated at Tyr701) in NCI-H1373 cells. The assay is described as follows: Phospho-STAT1 (Tyr701) LANCE Ultra TR-FRET detection assay in NCI-H1373 cells. It is filed as cell-based. As to conditions: Homo sapiens, NCI-H1373, 48 h, 48 hours incubation, induction of pSTAT1, normalized to 10 uM positive control and DMSO, 4-parameter fit, read-out: NH1373 pSTAT1 EC50. The procedure: Phospho-STAT1 (Tyr701 LANCE Ultra TR-FRET Detection Assay
LANCE Ultra phospho-STAT1 (Tyr701) kits are designed for the detection of phosphorylated STAT1 in cell lysates using a simple, homogeneous LANCE Ultra sandwich assay (Cat. #TRF4028M). This assay is intended for assessing compound induction of endogenous levels of cellular STAT1 (phosphorylated at Tyr701) in NCI-H1373 cells. The NCI-H1373 cells are cultured in RPMI 1640 media containing 10% heat inactivated FBS, GlutaMAX, 1% Penicillin-Streptomycin. An Echo acoustic liquid handler is used to transfer 60 nanoliters of compound dilutions using the Echo Qualified, 384-well polypropylene microplate clear flat bottom source plates into a Greiner (#781080) cell culture microplate. NCI-H1373 cells are seeded into these compound-spotted culture plates at 30,000 cells/well in a 60 uL volume in growth media. The plates are incubated in a 5% CO2 humidified incubator at 37° C. for 48 hours. […] Briefly, […] of supplemented lysis buffer is added to each well and allowed to shake for 1 hour at 400 rpm. Next, 5 ul of remixed antibody solutions (vol/vol) prepared in detection buffer are added to each well and allowed to incubate at room temperature overnight. After spinning the plate down at 300 rpm for 1 min, the plate is read on an EnVision plate reader set up for Eu^3+ Cryptate and fluorescence emission is measured at two different wavelengths (665 nm and 620 nm). The HTRF ratio is then calculated ([…]) for each well to determine the amount of pSTAT1 in the cell lysate, and the data is then normalized to 10 uM (S)-5-((1-(3-oxo-3-(4-(5-(trifluoromethyl)pyrimidin-2-yl)piperazin-1-yl)propoxy)propan-2-yl)amino)-4-(trifluoromethyl)pyridazin-3(2H)-one positive and DMSO negative controls. The values were then plotted as a function of compound concentration and a 4-parameter fit was applied to derive the EC50 values.
For `C[C@@H](C[C@@H](F)Cn1cnc2cc(-c3ncc(C(C)(F)F)cn3)c(F)cc2c1=O)Nc1cn[nH]c(=O)c1C(F)(F)F` [Example 107], the EC50 (commonly the midpoint of the concentration-response curve) amounted to 2.52 nM. For `C[C@@H](C[C@@H](F)Cn1ccc2cc(-c3ncc(C(C)(C)O)cn3)c(F)cc2c1=O)Oc1cn[nH]c(=O)c1C(F)(F)F` (single isomer, unassigned) [Example 51], the concentration giving a half-maximal response (EC50) is 3.28 nM.

As for `COc1cnc(-c2cc3ccn(C[C@H](F)C[C@H](C)Oc4cn[nH]c(=O)c4C(F)(F)F)c(=O)c3cc2F)nc1N` [Example 40], the EC50 was found to be 14.7 nM.

On to `C[C@@H](C[C@@H](F)Cn1ccc2cc(-c3ncc(C(F)CF)cn3)c(F)cc2c1=O)Nc1cn[nH]c(=O)c1C(F)(F)F` (stereo partly drawn) [Example 94], for which the EC50 amounted to 4.58 nM. Consider `COc1cnc(-c2cc3ncn(C[C@H](F)C[C@H](C)Oc4cn[nH]c(=O)c4C(F)(F)F)c(=O)c3cc2F)nc1` (single isomer, unassigned) [Example 57], for which the EC50 came to 38.8 nM. The figure for `C[C@@H](CC(F)Cn1cnc2cc(-c3ncc(C(F)(F)F)cn3)c(F)cc2c1=O)Oc1cn[nH]c(=O)c1C(F)(F)F` (stereo partly drawn) [Example 36] is 10.8 nM; for `C[C@@H](C[C@H](O)Cn1ccc2cc(-c3ncc(C(F)(F)F)cn3)c(F)cc2c1=O)Oc1cn[nH]c(=O)c1C(F)(F)F` [Example 18] it is 1.81 nM. The figure for `C[C@@H](C[C@@H](F)Cn1cc(Br)c2cc(-c3ncc(C(C)(C)O)cn3)c(F)cc2c1=O)Oc1cn[nH]c(=O)c1C(F)(F)F` [Example 68, 4-bromo-7-fluoro-2-((2R,4S)-2-fluoro-4-((6-oxo-5-(trifluoromethyl)-1,6-dihydropyridazin-4-yl)oxy)pentyl)-6-(5-(2-hydroxypropan-2-yl)pyrimidin-2-yl)isoquinolin-1(2H)-one] is 3.7 nM. On to `C[C@@H](C[C@@H](F)Cn1ccc2cc(-c3ncc(C(F)F)c(N)n3)c(F)cc2c1=O)Oc1cn[nH]c(=O)c1C(F)(F)F` (single isomer, unassigned) [Example 14], for which the EC50 was 8.34 nM. In the case of `C[C@@H](C[C@H](O)Cn1ccc2cc(-c3nc4ccccn4n3)c(F)cc2c1=O)Nc1cn[nH]c(=O)c1C(F)(F)F` (single isomer, unassigned) [Example 23] it was 7.18 nM; in that of `COC(C[C@H](C)Nc1cn[nH]c(=O)c1C(F)(F)F)Cn1ccc2cc(-c3ncc(C(F)(F)F)cn3)c(F)cc2c1=O` (stereo partly drawn) [Example 10, 7-fluoro-2-((4S)-2-methoxy-4-((6-oxo-5-(trifluoromethyl)-1,6-dihydropyridazin-4-yl)amino)pentyl)-6-(5-(trifluoromethyl)pyrimidin-2-yl)isoquinolin-1(2H)-one], 30.8 nM. In the case of `COc1cnc(-c2cc3ncn(C[C@@H](F)C[C@H](C)Oc4cn[nH]c(=O)c4C(F)(F)F)c(=O)c3cc2F)nc1` [Example 67] it was 3.44 nM.

As for `C[C@@H](C[C@@H](F)Cn1ccc2cc(-c3ncc(Cl)cn3)c(F)c(F)c2c1=O)Oc1cn[nH]c(=O)c1C(F)(F)F` (single isomer, unassigned) [Example 43], the concentration giving a half-maximal response (EC50) amounted to 0.62 nM. The figure for `O=c1[nH]ncc(N[C@@H](CO)C[C@@H](F)Cn2ccc3cc(-c4ncc(Cl)cn4)c(F)cc3c2=O)c1C(F)(F)F` [Example 124] is 11.1 nM. In the case of `COc1cnc(-c2cc3ccn(C[C@@H](F)C[C@H](C)Nc4cn[nH]c(=O)c4C(F)(F)F)c(=O)c3cc2F)nc1` (single isomer, unassigned) [Example 7] it was 152 nM; in that of `C[C@@H](C[C@@H](F)Cn1cc(F)c2cc(-c3ncc(C(F)(F)F)cn3)c(F)cc2c1=O)Oc1cn[nH]c(=O)c1C(F)(F)F` [Example 55], 135 nM. In the case of `C[C@@H](C[C@@H](F)Cn1ccc2cc(-c3ncc(S(C)(=O)=O)cn3)c(F)cc2c1=O)Oc1cn[nH]c(=O)c1C(F)(F)F` [Example 41] it was 402 nM; in that of `C[C@@H](C[C@H](F)Cn1ccc2cc(-c3ncc(C(C)(C)O)cn3)c(F)cc2c1=O)Oc1cn[nH]c(=O)c1C(F)(F)F` (single isomer, unassigned) [Example 61], 158 nM; in that of `C[C@@H](C[C@@H](F)Cn1ccc2cc(-c3ncc([C@H](O)C(F)F)cn3)c(F)cc2c1=O)Nc1cn[nH]c(=O)c1C(F)(F)F` [Example 81], 5.83 nM.

Consider `C[C@@H](C[C@@H](F)Cn1cc(F)c2cc(-c3ncc(C(C)(C)O)cn3)c(F)cc2c1=O)Nc1cn[nH]c(=O)c1C(F)(F)F` [Example 26], for which the EC50 was determined as 3.84 nM. In the case of `C[C@@H](C[C@@H](F)Cn1ccc2cc(-c3cc[nH]n3)c(F)cc2c1=O)Nc1cn[nH]c(=O)c1C(F)(F)F` [Example 73] it was 136 nM. The figure for `CC(O)c1cnc(-c2cc3ccn(C[C@H](F)C[C@H](C)Nc4cn[nH]c(=O)c4C(F)(F)F)c(=O)c3cc2F)nc1` (stereo partly drawn) [Example 111] is 4.64 nM; for `COc1cnc(-c2cc3ccn(C[C@H](F)C[C@H](C)Oc4cn[nH]c(=O)c4C(F)(F)F)c(=O)c3c(F)c2F)nc1` [Example 44] it is 0.375 nM; for `C[C@@H](C[C@@H](F)Cn1ccc2cc(-c3ncc(C(F)F)c(N)n3)c(F)c(F)c2c1=O)Oc1cn[nH]c(=O)c1C(F)(F)F` [Example 42] it is 0.836 nM. On to `C[C@@H](C[C@@H](F)Cn1ccc2cc(-c3ncc([C@@H](F)CF)cn3)c(F)cc2c1=O)Nc1cn[nH]c(=O)c1C(F)(F)F` [Example 92], for which the EC50 stood at 1.89 nM.

Take `C[C@@H](C[C@@H](O)Cn1ccc2cc(-c3ncc(C(F)(F)F)cn3)c(F)cc2c1=O)Oc1cn[nH]c(=O)c1C(F)(F)F` (single isomer, unassigned) [Example 17]: the EC50 came to 23.3 nM. The figure for `O=c1[nH]ncc(N[C@@H](CO)C[C@@H](F)Cn2ccc3cc(-c4ncc(C(F)(F)F)cn4)c(F)cc3c2=O)c1C(F)(F)F` [Example 123, 7-fluoro-2-((2R,4R)-2-fluoro-5-hydroxy-4-((6-oxo-5-(trifluoromethyl)-1,6-dihydropyridazin-4-yl)amino)pentyl)-6-(5-(trifluoromethyl)pyrimidin-2-yl)isoquinolin-1(2H)-one] is 16.2 nM; for `C[C@@H](C[C@@H](F)Cn1ccc2cc(-c3ncc(C(O)C(F)(F)F)cn3)c(F)cc2c1=O)Nc1cn[nH]c(=O)c1C(F)(F)F` (stereo partly drawn) [Example 79] it is 5.05 nM; for `C[C@@H](C[C@H](F)Cn1cc(F)c2cc(-c3ncc(C(F)(F)F)cn3)c(F)cc2c1=O)Oc1cn[nH]c(=O)c1C(F)(F)F` [Example 65] it is 2.85 nM. As to `C[C@@H](C[C@@H](F)Cn1ccc2cc(-c3ncc(C4CC4)cn3)c(F)cc2c1=O)Nc1cn[nH]c(=O)c1C(F)(F)F` [Example 95], the half-maximal effective concentration (EC50) amounted to 1.36 nM. The figure for `C[C@@H](C[C@@H](F)Cn1cc(F)c2cc(-c3ncc(C(F)F)cn3)c(F)cc2c1=O)Oc1cn[nH]c(=O)c1C(F)(F)F` [Example 52] is 67.9 nM; for `C[C@@H](C[C@@H](F)Cn1cc(F)c2cc(-c3ncc(C(F)F)cn3)c(F)cc2c1=O)Nc1cn[nH]c(=O)c1C(F)(F)F` [Example 29] it is 1.86 nM; for `C[C@@H](C[C@@H](F)Cn1ccc2cc(-c3ncc(F)cn3)c(F)cc2c1=O)Nc1cn[nH]c(=O)c1C(F)(F)F` [Example 108] it is 2.9 nM. As to `C[C@@H](CC(F)Cn1cnc2cc(-c3ncc(C(C)(C)O)cn3)c(F)cc2c1=O)Oc1cn[nH]c(=O)c1C(F)(F)F` (stereo partly drawn) [Example 38], the EC50 came out at 42.4 nM. The figure for `Cc1cnc(-c2cc3ccn(C[C@H](F)C[C@H](C)Nc4cn[nH]c(=O)c4C(F)(F)F)c(=O)c3cc2F)nc1` [Example 110] is 1.11 nM; for `Nc1nc(-c2cc3ccn(CC(F)CC(COC(F)F)Nc4cn[nH]c(=O)c4C(F)(F)F)c(=O)c3cc2F)ncc1C(F)F` (stereo not drawn) [Example 127] it is 6.55 nM; for `C[C@@H](C[C@@H](F)Cn1ccc2cc(-c3ncc4c(n3)NCCO4)c(F)cc2c1=O)Nc1cn[nH]c(=O)c1C(F)(F)F` [Example 113] it is 1.94 nM. `C[C@@H](C[C@@H](O)Cn1ccc2cc(-c3ncc(C(F)F)cn3)c(F)cc2c1=O)Oc1cn[nH]c(=O)c1C(F)(F)F` (single isomer, unassigned) [Example 19]: the EC50 was determined as 1.28 nM.

Turning to `C[C@@H](C[C@@H](F)Cn1ccc2cc(-c3ncc([C@@](C)(O)C(F)F)cn3)c(F)cc2c1=O)Nc1cn[nH]c(=O)c1C(F)(F)F` [Example 86], the EC50 was found to be 10.1 nM. The figure for `C[C@@H](C[C@@H](F)Cn1ccc2cc(-c3ncc(OCC#N)cn3)c(F)cc2c1=O)Nc1cn[nH]c(=O)c1C(F)(F)F` [Example 78] is 192 nM; for `C[C@@H](C[C@@H](F)Cn1ccc2cc(-c3ncc4c(n3)NC(=O)C4(C)C)c(F)cc2c1=O)Nc1cn[nH]c(=O)c1C(F)(F)F` [Example 89] it is 12 nM; for `C[C@@H](C[C@@H](F)Cn1ccc2cc(-c3ncc(C(C)(C)C)cn3)c(F)cc2c1=O)Nc1cn[nH]c(=O)c1C(F)(F)F` [Example 88] it is 1.29 nM.
